Data on two molecules can be found in patent publication EP1392697B1, “ANTIDEPRESSANT AZAHETEROCYCLYMETHYL DERIVATIVES OF 2,3-DIHYDRO-1,4-DIOXINO 2,3-F]QUINOLINE” (Wyeth, priority 2001, dated 2002).

The target of one test is serotonin transporter. The experiment in a line: 3H-paroxetine displacement binding, serotonin transporter affinity. Particulars: displacement of 3H-paroxetine from male rat frontal cortical membranes; read-out: 5-HT Transporter Affinity KI. Background: In a radioligand displacement assay an active substance lowers the binding of a labelled ligand.
A further test concerns the target human 5HT1A receptors. As to the kind of experiment: [3H] 8-OH-DPAT displacement binding, 5HT1A receptor affinity. To be noted: displacement of [3H] 8-OH-DPAT; CHO cells stably transfected with human 5HT1A receptors. An excerpt:
8-OH-DPAT (dipropylamino-tetralin) from the 5HT1A serotonin receptor following a modification of the procedure of Hall et al., J. Neurochem.

Test [1] concerns the target cloned human 5HT1A receptors. As to the kind of experiment: 35S-GTPγS binding assay, 5HT1A antagonist activity. The test is classed as biochemical. To be noted: reversal of the effects of the standard agonist 8-OH-DPAT, read-out: 5HT1A Function IC50. An excerpt: Agonists produce an increase in binding whereas antagonists produce no increase but rather reverse the effects of the standard agonist 8-OH-DPAT. The test compound's maximum inhibitory effect is represented as the Imax, while its potency is defined by the IC50.
(In general: GTPγS resists hydrolysis and so accumulates on activated G proteins.)

One may read the Ki as a measure of affinity in units of concentration, obtained from inhibition or displacement. A word on the IC50: it is the concentration that gives 50% inhibition. As to `CCc1cccc2c(CC3CCN(CC4COc5ccc6nc(C)ccc6c5O4)CC3)c[nH]c12` (stereo not drawn) [Example 19, 2-({4-[(7-Ethyl-1H-indol-3-yl)methyl]piperidin-1-yl}methyl)-8-methyl-2,3-dihydro[1,4]dioxino[2,3-f]quinoline], the Ki at serotonin transporter came out at 0.011 µM; on human 5HT1A receptors, 0.00738 µM. In addition, the IC50 in test [1] turned out to be 0.169 µM.
The matching figures for `Cc1ccc2c3c(ccc2n1)OCC(CN1CCC(Cc2c[nH]c4cc(Cl)ccc24)CC1)O3` (stereo not drawn) [Example 20, 2-({4-[(6-Chloro-1H-indol-3-yl)methyl]piperidin-1-yl}methyl)-8-methyl-2,3-dihydro[1,4]dioxino[2,3-f]quinoline]: 0.007 µM, 0.0255 µM and 0.666 µM.
